Data taken from article PMC5840523, “Assessment of a pretomanid analogue library for African trypanosomiasis: Hit-to-lead studies on 6-substituted 2-nitro-6,7-dihydro-5H-imidazo[2,1-b][1,3]thiazine 8-oxides” (Bioorganic & Medicinal Chemistry Letters, 2018).
Converted amounts (≈) assume the structure as drawn. Read-outs that look alike come from different tables or passages of the source.

What was measured:
in vitro = details: dog, MDCK-MDR1, Permeability Papp
L929 mouse fibroblasts = assay: Cytotoxicity toward L929 mouse fibroblasts (Scynexis); format: cell-based
[1] = Kinetic aqueous solubility in pH 7.4 PBS; format: physicochemical
Source text: Table 1 Inhibitory potency, metabolic stability, aqueous solubility, and MDCK-MDR1 cell permeability for 15 screening hits against T. b. brucei. | column: Solubility ^c / (µg/mL)

T. b. brucei 427 [2] = assay: T. b. brucei 427 growth inhibition (Scynexis); format: cell-based, Trypanosoma brucei brucei; details: for Selectivity Index: L929 vs T. b. brucei; for IC50: Trypanosoma brucei, growth inhibition of T. b. brucei 427, mean ± SD
Mouse liver S9 stability = format: in vitro ADME; details: CD-1, mouse, mouse liver S9 subcellular fraction, half-life in mouse liver S9 fraction; read-out: Mouse S9 t1/2
T. b. brucei 427 [3] = assay: T. b. brucei growth inhibition (University of Antwerp); format: cell-based, Trypanosoma brucei brucei; details: for IC50: T. b. brucei 427, mean of 2 to 5 determinations, read-out: IC50 T. b. bruc
Trypanosoma cruzi = assay: T. cruzi growth inhibition (University of Antwerp); format: cell-based; details: mean of 2 to 5 determinations
Leishmania infantum = assay: L. infantum growth inhibition (University of Antwerp); format: cell-based; details: mean of 2 to 5 determinations
[4] = system: human lung fibroblasts (MRC-5 cells); assay: Cytotoxicity toward MRC-5 cells (University of Antwerp); format: cell-based
T. b. rhodesiense = T. b. rhodesiense growth inhibition (University of Antwerp); format: cell-based, Trypanosoma brucei rhodesiense; details: mean of 2 to 5 determinations, read-out: IC50 T. b. rhod
T. b. brucei (EATRO 110) = assay: Acute (stage 1) HAT infection mouse model; format: in vivo, T. b. brucei; female Swiss Webster mice; details: 2 mg/kg i.p. once daily for 4 days
Experimental: Therefore, 24 was examined in a stage 1 HAT mouse model.[14] Briefly, dosing was orally once daily for four days, starting 24 h postinfection, and parasitemia was assessed weekly via tail vein blood smears (see the Supporting Information). Excellent activity was observed (Table 4), with 24 providing complete cures (i.e. parasite free blood smears after >30 days) to all mice at doses as low as 5 mg/kg, similar to the control drug pentamidine (given i.p. at 2 mg/kg), whereas the vehicle only mice died on day 7. […] Here, oral dosing of 24 (at 12.5 to 50 mg/kg once daily for seven days from day 21 postinfection) led to significant increases in survival times in comparison to untreated controls (66–70 days vs 31 days; Table 5), although cure rates were inadequate (0–20%). […]
Mouse Model f or Acu te HAT Inf ection. Compound 24 was tested for in vivo effi cac y against acute HAT infection caused b y T. b. brucei (EATRO 110 strain) at the Haskins Laboratories, Pace Universit y. […] Infected animals or th ose showing si gns of infectionwer e euthanized.Untreated infected contr ol animals died after 5-7 days; mice remaining parasite free for more than 30 da ys beyond the end of the tr eatment period w er e con sidered cur ed. […]

T. b. brucei (TREU 667) = assay: CNS (stage 2, chronic) HAT infection mouse model; format: in vivo, T. b. brucei; female Swiss Webster mice
Experimental: Therefore, 24 was examined in a stage 1 HAT mouse model.[14] Briefly, dosing was orally once daily for four days, starting 24 h postinfection, and parasitemia was assessed weekly via tail vein blood smears (see the Supporting Information). Excellent activity was observed (Table 4), with 24 providing complete cures (i.e. parasite free blood smears after >30 days) to all mice at doses as low as 5 mg/kg, similar to the control drug pentamidine (given i.p. at 2 mg/kg), whereas the vehicle only mice died on day 7. […]
Mouse Model for Chronic HAT Inf ection. Compound 24 was tested for in vi vo efficac y against chronic HAT infection caused b y T. b. brucei (TREU 667 strain) at the Haskin s Laboratories, Pace Universit y. […]
suspension formulation (0.8% CMC, 0.1% SDS in water) to groups of 8 or 10infected f emal e Swiss Webster mice, starting 21 d postinfection, according to a report ed method. 5 Animals remaining parasite free for more than 180 da ys beyond the end of the treatment period were […]

[5] = Homo sapiens, MRC5, cytotoxicity toward human lung fibroblasts
[6] = Trypanosoma brucei, RHODESIENSE
[7] = cytotoxicity toward human lung fibroblasts
[8] = 10 mg/kg single i.p. dose on day 4
[9] = 10 mg/kg single i.p. dose on day 21

CSc1ccc(OCc2ncc([N+](=O)[O-])n2C)cc1 [Compound 4, fexinidazole, reference compound]
Papp at 1 h, 3 µM (in vitro): 73.2 ×10⁻⁶ cm/s

CC1(COCc2ccc(OCc3ccccc3)cc2)Cn2cc([N+](=O)[O-])nc2[S+]1[O-] (stereo not drawn) [Compound 11]
Papp at 1 h, 3 µM (in vitro): 65.1 ×10⁻⁶ cm/s
IC50 (L929 mouse fibroblasts): > 10 µg/mL
solubility [1]: 1.3 µg/mL (≈ 3.04 µM)
Selectivity Index (T. b. brucei 427 [2]): >77
IC50 (T. b. brucei 427 [2]): 0.13 ± 0.04 µg/mL (≈ 0.304 µM)
half-life (Mouse liver S9 stability): < 1.17 h

O=[N+]([O-])c1cn2c(n1)SC(COCc1ccc(OCc3ccccc3)cc1)C2 (stereo not drawn) [Compound 15]
Papp at 1 h, 3 µM (in vitro): 58.3 ×10⁻⁶ cm/s
IC50 (L929 mouse fibroblasts): > 10 µg/mL
solubility [1]: 1.2 µg/mL (≈ 3.02 µM)
Selectivity Index (T. b. brucei 427 [2]): >22
IC50 (T. b. brucei 427 [2]): 0.46 ± 0.21 µg/mL (≈ 1.16 µM)
half-life (Mouse liver S9 stability): < 1.17 h

CC1(COCc2ccc(OCc3ccccc3)cc2)Cn2cc([N+](=O)[O-])nc2S1 (stereo not drawn) [Compound 20]
Papp at 1 h, 3 µM (in vitro): 46.5 ×10⁻⁶ cm/s
IC50 (L929 mouse fibroblasts): > 10 µg/mL
solubility [1]: 1.2 µg/mL (≈ 2.92 µM)
Selectivity Index (T. b. brucei 427 [2]): >4.5
IC50 (T. b. brucei 427 [2]): 2.2 ± 0.7 µg/mL (≈ 5.35 µM)

COc1ccc(-c2ccc(O[C@@H]3COc4nc([N+](=O)[O-])cn4C3)nc2)cn1 [Compound 21]
Papp at 1 h, 3 µM (in vitro): 76.9 ×10⁻⁶ cm/s
IC50 (L929 mouse fibroblasts): > 10 µg/mL
solubility [1]: 18 µg/mL (≈ 48.7 µM)
Selectivity Index (T. b. brucei 427 [2]): >3.7
IC50 (T. b. brucei 427 [2]): 2.7 ± 0.5 µg/mL (≈ 7.31 µM)
half-life (Mouse liver S9 stability): 3.98 h

O=[N+]([O-])c1cn2c(n1)OC[C@@H](Oc1cc(-c3ccc(C(F)(F)F)nc3)ccn1)C2 [Compound 22]
Papp at 1 h, 3 µM (in vitro): 79.3 ×10⁻⁶ cm/s
IC50 (L929 mouse fibroblasts): > 10 µg/mL
solubility [1]: 10 µg/mL (≈ 24.6 µM)
Selectivity Index (T. b. brucei 427 [2]): >3.6
IC50 (T. b. brucei 427 [2]): 2.8 ± 0.2 µg/mL (≈ 6.87 µM)
half-life (Mouse liver S9 stability): 2.43 h

CN1CC(OCc2ccc(OCc3ccccc3)cc2)Cn2nc([N+](=O)[O-])cc21 (stereo not drawn) [Compound 23]
Papp at 1 h, 3 µM (in vitro): 36.3 ×10⁻⁶ cm/s
IC50 (L929 mouse fibroblasts): > 10 µg/mL
solubility [1]: 2.4 µg/mL (≈ 6.08 µM)
Selectivity Index (T. b. brucei 427 [2]): >3.3
IC50 (T. b. brucei 427 [2]): 3 ± 0.9 µg/mL (≈ 7.61 µM)
half-life (Mouse liver S9 stability): < 1.17 h

O=[N+]([O-])c1cn2c(n1)SCC(Oc1ccc(OC(F)(F)F)cc1)C2 (stereo not drawn) [Compound 28]
IC50 (T. b. brucei 427 [3]; Trypanosoma brucei): 40 µM
IC50 (Trypanosoma cruzi; Trypanosoma cruzi): 2.2 µM
IC50 (Leishmania infantum; Leishmania infantum): 7 µM
IC50 [4, 5]: 51 µM
IC50 (T. b. rhodesiense; [6]): 59 µM

O=[N+]([O-])c1cn2c(n1)SCC(Oc1ccc(C(F)(F)F)cn1)C2 (stereo not drawn) [Compound 29]
IC50 (T. b. brucei 427 [3]; Trypanosoma brucei): > 64 µM
IC50 (Trypanosoma cruzi; Trypanosoma cruzi): 5.3 µM
IC50 (Leishmania infantum; Leishmania infantum): 10 µM
IC50 [4, 5]: > 64 µM
IC50 (T. b. rhodesiense; [6]): > 64 µM

O=[N+]([O-])c1cn2c(n1)SCC(OCc1ccc(OC(F)(F)F)cc1)C2 (stereo not drawn) [Compound 30]
IC50 (T. b. brucei 427 [3]; Trypanosoma brucei): 44 µM
IC50 (Trypanosoma cruzi; Trypanosoma cruzi): 1.1 µM
IC50 (Leishmania infantum; Leishmania infantum): 55 µM
IC50 [4, 5]: > 64 µM
IC50 (T. b. rhodesiense; [6]): 36 µM

O=[N+]([O-])c1cn2c(n1)SCC(OCc1ccc(OCc3ccccc3)cc1)C2 (stereo not drawn) [Compound 31]
IC50 (T. b. brucei 427 [3]; Trypanosoma brucei): 1.4 µM
IC50 (Trypanosoma cruzi; Trypanosoma cruzi): 0.49 µM
IC50 (Leishmania infantum; Leishmania infantum): 45 µM
IC50 [4, 5]: > 64 µM
IC50 (T. b. rhodesiense; [6]): 1.2 µM

O=[N+]([O-])c1cn2c(n1)SCC(OCc1ccc(-c3ccc(OC(F)(F)F)cc3)cn1)C2 (stereo not drawn) [Compound 32]
IC50 (T. b. brucei 427 [3]; Trypanosoma brucei): 4.3 µM
IC50 (Trypanosoma cruzi; Trypanosoma cruzi): 1.4 µM
IC50 (Leishmania infantum; Leishmania infantum): 7.5 µM
IC50 [4, 5]: 21 µM
IC50 (T. b. rhodesiense; [6]): 2.1 µM

O=[N+]([O-])c1cn2c(n1)[S+]([O-])CC(Oc1ccc(OC(F)(F)F)cc1)C2 (stereo not drawn) [Compound 33]
potency relative to 12 against T. b. brucei (fold less potent) (T. b. brucei 427 [3]): 4- to 6 fold
IC50 (T. b. brucei 427 [3]): 1.6 µM
IC50 (Trypanosoma cruzi): 2.1 µM
IC50 (Leishmania infantum): 7 µM
IC50 [4, 7]: 23 µM
IC50 (T. b. rhodesiense): 0.98 µM

O=[N+]([O-])c1cn2c(n1)[S+]([O-])CC(Oc1ccc(C(F)(F)F)cn1)C2 (stereo not drawn) [Compound 34]
potency relative to 12 against T. b. brucei (fold less potent) (T. b. brucei 427 [3]): 4- to 6 fold
IC50 (T. b. brucei 427 [3]): 1.2 µM
IC50 (Trypanosoma cruzi): 4.1 µM
IC50 (Leishmania infantum): 13 µM
IC50 [4, 7]: > 64 µM
IC50 (T. b. rhodesiense): 0.51 µM

O=[N+]([O-])c1cn2c(n1)[S+]([O-])CC(Oc1ccc(OC(F)(F)F)cc1)C2 (stereo not drawn) [Compound 36]
IC50 (T. b. brucei 427 [3]): 55 µM
IC50 (Trypanosoma cruzi): 7.7 µM
IC50 (Leishmania infantum): > 64 µM
IC50 [4, 7]: > 64 µM
IC50 (T. b. rhodesiense): 27 µM

O=[N+]([O-])c1cn2c(n1)[S+]([O-])CC(Oc1ccc(C(F)(F)F)cn1)C2 (stereo not drawn) [Compound 37]
IC50 (T. b. brucei 427 [3]): 17 µM
IC50 (Trypanosoma cruzi): 12 µM
IC50 (Leishmania infantum): 41 µM
IC50 [4, 7]: 30 µM
IC50 (T. b. rhodesiense): 9.9 µM

O=[N+]([O-])c1cn2c(n1)[S+]([O-])CC(OCc1ccc(OC(F)(F)F)cc1)C2 (stereo not drawn) [Compound 38]
IC50 (T. b. brucei 427 [3]): 5.6 µM
IC50 (Trypanosoma cruzi): 9.1 µM
IC50 (Leishmania infantum): > 64 µM
IC50 [4, 7]: > 64 µM
IC50 (T. b. rhodesiense): 5.1 µM

O=[N+]([O-])c1cn2c(n1)[S+]([O-])CC(OCc1ccc(-c3ccc(OC(F)(F)F)cc3)cn1)C2 (stereo not drawn) [Compound 39, 2-Nitro-6-({5-[4-(trifluoromethoxy)phenyl]pyridin-2-yl}methoxy)-6,7-dihydro-5H-imidazo[2,1-b][1,3]thiazine 8-oxide]
IC50 (T. b. brucei 427 [3]): 0.075 µM
IC50 (Trypanosoma cruzi): 0.14 µM
IC50 (Leishmania infantum): 2 µM
IC50 [4, 7]: 54 µM
IC50 (T. b. rhodesiense): 0.1 µM

O=[N+]([O-])c1cn2c(n1)S(=O)(=O)CC(Oc1ccc(OC(F)(F)F)cc1)C2 (stereo not drawn) [Compound 40]
IC50 (T. b. brucei 427 [3]; Trypanosoma brucei): 15 µM
IC50 (Trypanosoma cruzi; Trypanosoma cruzi): 3.5 µM
IC50 (Leishmania infantum; Leishmania infantum): 32 µM
IC50 [4, 5]: > 64 µM
IC50 (T. b. rhodesiense; [6]): 13 µM

O=[N+]([O-])c1cn2c(n1)S(=O)(=O)CC(Oc1ccc(C(F)(F)F)cn1)C2 (stereo not drawn) [Compound 41]
IC50 (T. b. brucei 427 [3]; Trypanosoma brucei): 19 µM
IC50 (Trypanosoma cruzi; Trypanosoma cruzi): 2.6 µM
IC50 (Leishmania infantum; Leishmania infantum): 30 µM
IC50 [4, 5]: 46 µM
IC50 (T. b. rhodesiense; [6]): 11 µM

N=C(N)c1ccc(OCCCCCOc2ccc(C(=N)N)cc2)cc1 [Pentamidine, pentamidine, reference compound]
Cured (T. b. brucei (EATRO 110)): 100%
Cured/Total (T. b. brucei (EATRO 110)): 3/3
Mean survival (T. b. brucei (EATRO 110)): >30 days

Berenil [reference compound]
Cured (T. b. brucei (TREU 667); [8]): 100%
Cured/Total (T. b. brucei (TREU 667); [8]): 5/5
Cured (T. b. brucei (TREU 667); [9]): 0%
Cured/Total (T. b. brucei (TREU 667); [9]): 0/5
Mean relapse time (T. b. brucei (TREU 667); [9]): 41 days
